Measured values from patent US3969401A, “D-aminophenylacetic acid compounds and derivatives” (William H. Rorer, Inc., priority 1973, dated 1976).
Counter-ions that a name gives are not always drawn.

Legend:
gastrointestinal tract = experiment: Gastrointestinal tolerance; type: in vivo; conditions: compared with the free acids
carrageenan paw edema = experiment: Carrageenan Paw Edema (CPE); type: in vivo, male rats
Experimental: Of the substances used to induce local irritation, carrageenan was selected since most known nonsteroidal anti-inflammatory agents inhibit this inflammation.
Ten male rats per dose group (120-150 g.) were given one-half of the test material orally. Thirty minutes later, the remainder of the dose was given and 0.2 ml. of a 1% carrageenan solution was injected subdermally into the plantar surface of the hind paw. Each paw is marked as a consistent anatomical site, then immersed in a mercury bath to that point. The mercury bath is connected to a pressure transducer and the volume of displacement is read directly on a recorder. Three hours after drug administration, the hind paw volume is measured again. The increased volume is an index of edema. Treated groups are compared to a placebo-treated group to calculate the percent inhibition of edema.
(§1) The test results are given in the following Table wherein the following legends were employed: PQW phenylquinone writhing RSA Randall-Selitto Analgesia CPE Carrageenan Paw Edema UVS Ultra-Violet Erythema FPG Filter Paper Granuloma AP Anti-Pyresis P.T. Pain Threshold No. P/T Number Positive/Total % ↑ Percentage Increase % ↓ Percentage Inhibition

Brewer's yeast fever = experiment: Anti-Pyretic Assay (AP); type: in vivo, rats; conditions: positive = rectal temperature decreases by 1° C. or more
Experimental: Brewer's yeast was injected subcutaneously in rats and rectal temperatures were obtained at the end of five hours. Those rats (10 per group) having a significant fever were given test compounds and rectal temperatures were measured at hourly intervals for 2 to 3 hours. (A positive response occurs when rectal temperature decreases by 1° C. or more).
as §1

polyarthritis (adjuvant) = experiment: Polyarthritis in rats (adjuvant); type: in vivo
Experimental: Twelve rats per dose group were treated (b.i.d.) starting the day before injection of adjuvant. Paw volumes were measured for both hind paws on several days during and following drug treatment. Drug was given for a period of 15 days. The paw volume was compared to an untreated control group to determine volume increase. Drug action was calculated as the percent decrease in paw volume (inflammation) as compared to an adjuvant-treated control. Gross signs of inflammation were scored on a weekly basis and drug action calculated as a decrese in total score. Body weights were recorded at intervals.

Acute Toxicity = conditions: mouse, in vivo; male mice, oral single dose, observed nine days
Experimental: Food and water were delivered ad lib. The drug to be tested was prepared as a water suspension using one drop of "Tween 80" per 10 ml. and administered orally as a single dose (10 ml./kg.). The control group received the vehicle only (10 ml./kg.). The lethal dose (LD50) which is the dose of drug required to kill 50 percent of the animals tested, was determined by the Litchfield and Wilcoxon method.

[1] = test system: yeast-inflamed hind paw (pain threshold); experiment: Randall-Selitto Analgesia Test (RSA); type: in vivo, rat
Experimental: In accordance with the Randall-Selitto test for measuring the pain threshold, the pressure needed on a metal plunger to give a "pain reponse" in a rat when the plunger is placed in the yeast-inflamed hind paw of a rat is measured. Following measurement of control pain threshold, yeast was injected into the paw and the test compound was given orally. The pain threshold was measured at hourly intervals and compared to a placebo-treated control group.
as §1

ultra-violet erythema = experiment: Ultra-violet Erythema in Guinea Pigs (UVE); type: in vivo, guinea pig
Source text: Erythema associated with inflammation was used in the assay. Restricted areas of a guinea pig were exposed to a controlled ultra-violet light and after two hours the exposed areas were graded for the extent of erythema.
as §1

filter paper granuloma = experiment: Filter Paper Granuloma (FPG); type: in vivo, rat
Experimental: This assay was used to evaluate anti-inflammatory agents and to determine the lowest dose which produces significant inhibition of granuloma growth. This assay has the advantage of being semi-acute (4 to 7 days). The usual end point involves obtaining the wet weight as well as the dry weight of the granuloma.
Small discs of filter paper saturated with carrageenan were placed subcutaneously in each rat on the first day of the study. Test compound was administered orally on a b.i.d. basis on Day 1 to Day 4. On Day 5, a single dose was given in the morning and the animals were sacrificed in the afternoon. Both filter paper discs were removed and trimmed of extraneous tissue and then weighed. After drying in an oven over the weekend, the dry weight was obtained. Activity was determined by the difference in granuloma weight between a placebo-treated control group and the drug-treated groups.
as §1

phenylquinone writhing = experiment: Phenylquinone analgesia (phenylquinone writhing, PQW); type: in vivo, mice
Experimental: Mice were pre-treated orally with test compound and then given 1.25 mg./kg. of phenylquinone i.p to produce a series of "writhes" (severe intestinal contractions). The number of writhes was recorded. The percent decrease was calculated from the incidence of writhes in a placebo-treated control group.
as §1

With CCOC(=O)C(Cl)c1ccc(C2CCCCC2)c(Cl)c1 (stereo not drawn) [Compound 541, α,m-Dichloro-p-cyclohexylphenylacetic acid ethyl ester] the gastrointestinal tolerability (gastrointestinal tract) was “better tolerated and not as irritating on the gastrointestinal tract as the free acids”, the “CPE % inhibition of edema” value (carrageenan paw edema; 6.25 mg/kg P.O) was 51.3% and the “CPE % inhibition of edema” value (carrageenan paw edema; 12.5 mg/kg P.O) was 38.8%. For the same compound, the “CPE % inhibition of edema” value (carrageenan paw edema; 25 mg/kg P.O) was 49.8% and the “CPE % inhibition of edema” value (carrageenan paw edema; 50 mg/kg P.O) was 52.2%.

In the case of O=C1NC(=O)C(c2ccc(C3CCCCC3)c(Cl)c2)S1 (centres unmarked) [Compound 529, 5-(m-Chloro-p-cyclohexylphenyl)-2,4-dioxothiazolidine], the “AP No. P/T (Number Positive/Total)” value (Brewer's yeast fever; 100 mg/kg P.O) is reported as 1/8, the “CPE % inhibition of edema” value (carrageenan paw edema; 50 mg/kg P.O) is reported as 17.4% and the “CPE % inhibition of edema” value (carrageenan paw edema; 100 mg/kg P.O) is reported as 30%. For the same compound, the “Polyarthritis % av. inhibition, injected hind-paw” value (polyarthritis (adjuvant); 100 mg./kg./day P.O) was 42.0%, the “Polyarthritis % av. inhibition, noninjected hind-paw” value (polyarthritis (adjuvant); 100 mg./kg./day P.O) was 17.3% and the “Polyarthritis % av. inhibition, secondary lesions” value (polyarthritis (adjuvant); 100 mg./kg./day P.O) was 21.0%.

For O=C(O)C(SSC(C(=O)O)c1ccc(C2CCCCC2)c(Cl)c1)c1ccc(C2CCCCC2)c(Cl)c1 (stereo not drawn) [Compound 531A, Diethylammonium salt of α,α'-di-(m-chloro-p-cyclohexylphenyl)-α',α'-dithiodiacetic acid], the LD50 at 216 h (Acute Toxicity) was greater than 2000 mg/kg, the “AP No. P/T (Number Positive/Total)” value (Brewer's yeast fever; 50 mg/kg P.O) was 1/8 and the “AP No. P/T (Number Positive/Total)” value (Brewer's yeast fever; 100 mg/kg P.O) was 1/8. The “AP No. P/T (Number Positive/Total)” value (Brewer's yeast fever; 200 mg/kg P.O) was 6/8, the “RSA % increase of pain threshold (PT)” value ([1]; 50 mg/kg P.O) was 32% and the “RSA % increase of pain threshold (PT)” value ([1]; 100 mg/kg P.O) was 28%. For the same compound, the “RSA % increase of pain threshold (PT)” value ([1]; 200 mg/kg P.O) was 51%, the “CPE % inhibition of edema” value (carrageenan paw edema; 100 mg/kg P.O) was 19.9% and the “Polyarthritis % av. inhibition, injected hind-paw” value (polyarthritis (adjuvant); 100 mg./kg./day P.O) was 34.0%. For the same compound, the “Polyarthritis % av. inhibition, noninjected hind-paw” value (polyarthritis (adjuvant); 100 mg./kg./day P.O) was 44.7%, the “Polyarthritis % av. inhibition, secondary lesions” value (polyarthritis (adjuvant); 100 mg./kg./day P.O) was 30.3% and the “Polyarthritis % av. inhibition, injected hind-paw” value (polyarthritis (adjuvant); 200 mg./kg./day P.O) was 35.6%. The “Polyarthritis % av. inhibition, noninjected hind-paw” value (polyarthritis (adjuvant); 200 mg./kg./day P.O) was 43.8% and the “Polyarthritis % av. inhibition, secondary lesions” value (polyarthritis (adjuvant); 200 mg./kg./day P.O) was 43.6%.

For O=C(O)C(S)c1ccc(C2CCCCC2)c(Cl)c1 (stereo not drawn) [Compound 528A, Diethylammonium salt of m-chloro-p-cyclohexyl-α-mercaptophenylacetic acid], the “UVE No. P/T (Number Positive/Total)” value (ultra-violet erythema; 5 mg/kg P.O) was 5/8, the “UVE No. P/T (Number Positive/Total)” value (ultra-violet erythema; 10 mg/kg P.O) was 5/8 and the “UVE No. P/T (Number Positive/Total)” value (ultra-violet erythema; 25 mg/kg P.O) was 7/8. The ED50 (ultra-violet erythema; Cavia porcellus, po, P.O) was 10.5 mg/kg, the “CPE % inhibition of edema” value (carrageenan paw edema; 100 mg/kg P.O) was 52.0% and the “Polyarthritis % av. inhibition, injected hind-paw” value (polyarthritis (adjuvant); 100 mg./kg./day P.O) was 52.8%. For the same compound, the “Polyarthritis % av. inhibition, noninjected hind-paw” value (polyarthritis (adjuvant); 100 mg./kg./day P.O) was 35.6% and the “Polyarthritis % av. inhibition, secondary lesions” value (polyarthritis (adjuvant); 100 mg./kg./day P.O) was 34.0%.

With N=C1NC(=O)C(c2ccc(C3CCCCC3)c(Cl)c2)S1 (centres unmarked) [Compound 530, 5-(m-Chloro-p-cyclohexylphenyl)-2-imino-4-oxothiazolidine] the “RSA % increase of pain threshold (PT)” value ([1]; 100 mg/kg P.O) was 51.4%, the “Polyarthritis % av. inhibition, injected hind-paw” value (polyarthritis (adjuvant); 100 mg./kg./day P.O) was 38.1% and the “Polyarthritis % av. inhibition, noninjected hind-paw” value (polyarthritis (adjuvant); 100 mg./kg./day P.O) was 44.7%. For the same compound, the “Polyarthritis % av. inhibition, secondary lesions” value (polyarthritis (adjuvant); 100 mg./kg./day P.O) was 17.3%.

With O=C(O)C(Cl)c1ccc(C2CCCCC2)c(Cl)c1 (stereo not drawn) [Compound 539A, Sodium salt of α,m-dichloro-p-cyclohexylphenylacetic acid] the LD50 at 216 h (Acute Toxicity) was 430 mg/kg, the “EPG (Filter Paper Granuloma) % inhibition, dry weight” value (filter paper granuloma; 25 mg./kg./day P.O) was 41.1% and the “EPG (Filter Paper Granuloma) % inhibition, wet weight” value (filter paper granuloma; 25 mg./kg./day P.O) was 31.7%. The “EPG (Filter Paper Granuloma) % inhibition, dry weight” value (filter paper granuloma; 50 mg./kg./day P.O) was 38.8%, the “EPG (Filter Paper Granuloma) % inhibition, wet weight” value (filter paper granuloma; 50 mg./kg./day P.O) was 43.9% and the “AP No. P/T (Number Positive/Total)” value (Brewer's yeast fever; 6.25 mg/kg P.O) was 0/8. For the same compound, the “AP No. P/T (Number Positive/Total)” value (Brewer's yeast fever; 12.5 mg/kg P.O) was 3/8, the “AP No. P/T (Number Positive/Total)” value (Brewer's yeast fever; 25 mg/kg P.O) was 2/8 and the “AP No. P/T (Number Positive/Total)” value (Brewer's yeast fever; 50 mg/kg P.O) was 6/8. The “AP No. P/T (Number Positive/Total)” value (Brewer's yeast fever; 100 mg/kg P.O) was 8/8, the “RSA % increase of pain threshold (PT)” value ([1]; 25 mg/kg P.O) was 41.8% and the “RSA % increase of pain threshold (PT)” value ([1]; 50 mg/kg P.O) was 49.3%. The “RSA % increase of pain threshold (PT)” value ([1]; 100 mg/kg P.O) was 77.6%, the “CPE % inhibition of edema” value (carrageenan paw edema; 1 mg/kg P.O) was 10% and the “CPE % inhibition of edema” value (carrageenan paw edema; 2 mg/kg P.O) was 30.3%. The “CPE % inhibition of edema” value (carrageenan paw edema; 3.125 mg/kg P.O) was 34.6%, the “CPE % inhibition of edema” value (carrageenan paw edema; 5 mg/kg P.O) was 29.5% and the “CPE % inhibition of edema” value (carrageenan paw edema; 6.25 mg/kg P.O) was 42.0%. For the same compound, the “CPE % inhibition of edema” value (carrageenan paw edema; 12.5 mg/kg P.O) was 47.2%, the “CPE % inhibition of edema” value (carrageenan paw edema; 25 mg/kg P.O) was 43.0% and the “CPE % inhibition of edema” value (carrageenan paw edema; 50 mg/kg P.O) was 52.0%. For the same compound, the “CPE % inhibition of edema” value (carrageenan paw edema; 100 mg/kg P.O) was 64.0%, the “Polyarthritis % av. inhibition, injected hind-paw” value (polyarthritis (adjuvant); 10 mg./kg./day P.O) was 41.8% and the “Polyarthritis % av. inhibition, noninjected hind-paw” value (polyarthritis (adjuvant); 10 mg./kg./day P.O) was 14.1%. The “Polyarthritis % av. inhibition, secondary lesions” value (polyarthritis (adjuvant); 10 mg./kg./day P.O) was 28.2%, the “Polyarthritis % av. inhibition, injected hind-paw” value (polyarthritis (adjuvant); 25 mg./kg./day P.O) was 50.2% and the “Polyarthritis % av. inhibition, noninjected hind-paw” value (polyarthritis (adjuvant); 25 mg./kg./day P.O) was 12.1%. The “Polyarthritis % av. inhibition, secondary lesions” value (polyarthritis (adjuvant); 25 mg./kg./day P.O) was 44.0%, the “Polyarthritis % av. inhibition, injected hind-paw” value (polyarthritis (adjuvant); 50 mg./kg./day P.O) was 45% and the “Polyarthritis % av. inhibition, noninjected hind-paw” value (polyarthritis (adjuvant); 50 mg./kg./day P.O) was 59.6%. For the same compound, the “Polyarthritis % av. inhibition, secondary lesions” value (polyarthritis (adjuvant); 50 mg./kg./day P.O) was 39.3%, the “Polyarthritis % av. inhibition, injected hind-paw” value (polyarthritis (adjuvant); 100 mg./kg./day P.O) was 59.1% and the “Polyarthritis % av. inhibition, noninjected hind-paw” value (polyarthritis (adjuvant); 100 mg./kg./day P.O) was 51.2%. For the same compound, the “Polyarthritis % av. inhibition, secondary lesions” value (polyarthritis (adjuvant); 100 mg./kg./day P.O) was 30.1%, the “PQW % inhibition (decrease in writhes)” value (phenylquinone writhing; 2 mg/kg P.O) was 13.1% and the “PQW % inhibition (decrease in writhes)” value (phenylquinone writhing; 5 mg/kg P.O) was 13.1%. For the same compound, the “PQW % inhibition (decrease in writhes)” value (phenylquinone writhing; 10 mg/kg P.O) was 54.6%, the “PQW % inhibition (decrease in writhes)” value (phenylquinone writhing; 20 mg/kg P.O) was 84.5% and the “PQW % inhibition (decrease in writhes)” value (phenylquinone writhing; 30 mg/kg P.O) was 96.6%. It also gave an ED50 (phenylquinone writhing; Mus musculus, po, P.O) of 9.6 mg/kg.
